In PMC6149664, “Synthesis and In Vitro Antimycobacterial Activity of Novel N-Arylpiperazines Containing an Ethane-1,2-diyl Connecting Chain” (Molecules : A Journal of Synthetic Chemistry and Natural …, 2017):
Like-named read-outs stand apart in the source and are kept apart here.

Columns and labels:
M. kansasii CIT11/06 = assay: In vitro antimycobacterial MIC (IC90), alamarBlue 96-well assay in Middlebrook broth; type: cell-based, Mycobacterium kansasii; conditions: Mycobacterium kansasii, CIT11/06, 168 h, 7 days incubation, read-out: MIC, MK CIT11/06
[1] = tested on: M. avium hominissuis CIT10/08; assay: as above; type: cell-based, Mycobacterium avium hominissuis; conditions: Mycobacterium avium, 168 h, 7 days incubation, read-out: MIC, MAH CIT10/08
[2] = tested on: M. avium CNCTC My 330/80 (identical with ATCC 25291); assay: In vitro antimycobacterial MIC, dilution-micromethod in Šula semisynthetic medium; type: cell-based; conditions: Mycobacterium avium
[3] = tested on: M. kansasii CNCTC My 235/80 (identical with ATCC 12478); assay: as above; type: cell-based, Mycobacterium kansasii; conditions: Mycobacterium kansasii, read-out: MIC, MK My 235/80
[4] = Isocratic RP-HPLC lipophilicity (k, log k, extrapolated log kw, slope S), MeOH/water mobile phases; type: physicochemical; conditions: for log kw (RP-HPLC): extrapolated to 100% water from log k vs ϕM (MeOH); for S, slope (RP-HPLC): slope of regression log k vs ϕM, alternative measure of lipophilicity
Excerpt: Octadecyl-functionalized silica gel was used as a stationary phase in the RP-HPLC evaluation of 8a–h. A gradient of two solvents at different volume ratios modulated retention properties of a stationary phase. Liquid binary mixtures of methanol (MeOH) with water were employed as mobile phases in a present isocratic RP-HPLC method. The MeOH organic modifier was preferred because of making a reversed-phase chromatographic system closer to the octan-1-ol/water partitioning one in terms of sensitivity to H-bond donor properties of investigated compounds [39, 40]. The modifier was applied in different volume concentrations that varied from 60% to 85% (v/v).
The chromatographic HPLC-Diode Array Detection apparatus for the determination of capacity (retention) factor k (log k) values was the LC Agilent Infinity System (Agilent Technologies, Santa Clara, CA, USA) equipped with a Infinity 1260 gradient pump with a degasser, a 1260 HiPals automatic injector, a column thermostat 1290, a photo-diode array detector Infinity 1290 (all the equipments were obtained by Agilent Technologies) and personal computer with the Agilent ChemStation software (Agilent Technologies) for the registration of values and calibration procedures. The chromatographic column Eclipse plus RP C18, 150 × 4.6 mm i.d., a 5 μm particle size (Agilent Technologies), was used and thermostated at 35 °C.
The analyses were performed at pressure ranged from 7 MPa to 15 MPa. The detection wavelength was set to 260 nm, injection sample volume was 5 μL with a flow rate of 1.0 mL/min in all RP-HPLC analyses.
LC-MS Methanol (J. T. Baker Chemicals Co., Phillipsburg, NJ, USA) and HPLC-quality water (Sigma-Aldrich, Darmstadt, Germany) were used for a preparation of mobile phases. Water was firstly deionized and purified by the Millipore Simplicity 185 Ultrapure water purification system (Millipore, Billerica, MA, USA).
Methanol (MeOH)/water mobile phases with a various volume ratio of the organic modifier and water (60:40, 70:30, 80:20 and 85:15, respectively; v/v) were chosen. A concentration of all analyzed compounds 8a–h was c = 0.25 mg/mL. An queous solution of potassium nitrate (c = 0.1 M) was used for the determination of dead time t0 = 1.295 min. The capacity (retention) factor k values (Table 1) were calculated by Equation (6) as follows:k = (tr – t0)/t0(6) where the tr and t0 parameters were the retention times of a solute (tr) and unretained compound (potassium nitrate; t0), respectively. The observed retention (tr) and dead (t0) times were means of three independent determinations.
The log kw values, i.e., the logarithms of extrapolated capacity (retention) factors for 100% water in the isocratic RP-HPLC, were determined from intercepts of linear plots between the log k and ϕM (a volume fraction of an organic modifier in the isocratic elution RP-HPLC) according to Equation (7): log k = log kw – S × ϕM(7) where the S parameter represented the slope of a regression curve, which was related to the solvent strength of a pure organic solvent.

[5] = tested on: M. tuberculosis CNCTC My 331/88 (identical with H37Rv and ATCC 2794); assay: In vitro antimycobacterial MIC, dilution-micromethod in Šula semisynthetic medium; type: cell-based; conditions: Mycobacterium tuberculosis
[6] = type: physicochemical; design: key to RM (RP-TLC): RM = log(1/Rf - 1), from Rf in HCl/acetone mobile phase
Method: In the RP-TLC, silica gel plates impregnated by a hand with a variously concentrated silicone oil in heptane (a strong hydrophobic agent) were used as a non-polar stationary phase. Optimal differences in RM values within both homological groups 8a–d and 8e–h were observed if 1% silicone oil in heptane was chosen (Tables 1 and S1 in Supplementary Materials).
The RM values were calculated according to Equation (5) from the Rf parameters observed in a SM mobile phase: hydrochloric acid (c = 1.0 M)/acetone (4:1, v/v):RM = log (1/Rf – 1)(5)
For the experiments, aluminium sheets pre-coated with silica gel 60 F254 (0.25 mm thickness; Merck) were impregnated by a variously concentrated silicone oil in heptane, which ranged from 1% to 5%. The plates were separately spotted with 2 µL of methanolic solutions of each compound (c = 1 mg/mL), starting points were 1 cm from a bottom edge of these plates. The chromatographic plates were developed in glass developing chambers saturated for 30 min by the SM mobile phase. Development was carried out upon 15 cm from a starting line by an ascending technique. After being developed, the plates were dried at room temperature. Detection of zones was performed under iodine vapours/UV light at λ = 254 nm. Each experiment was run in triplicate at 21 °C, the RM values of analytes were calculated separately for each run.
Optimal differences in RM values within both homological groups 8a–d and 8e–h were observed if 1% silicone oil in heptane was chosen. The Rfs were found in a range from 0.19 (8h) to 0.78 (8a; Table 1). All the calculated average RM values were summarized in Table S1 (Supplementary Materials).

[7] = tested on: M. kansasii 6 509/96 clinical isolate; assay: In vitro antimycobacterial MIC, dilution-micromethod in Šula semisynthetic medium; type: cell-based; conditions: Mycobacterium kansasii, read-out: MIC, MK 6 509/96
[8] = ATCC25291, 336 h, 14 d cultivation, read-out: MIC, MA My 330/88
[9] = ATCC25291, 504 h, 21 d cultivation, read-out: MIC, MA My 330/88
[10] = ATCC12478, 336 h, 14 d cultivation
[11] = ATCC12478, 504 h, 21 d cultivation
[12] = mobile phase MeOH/water 60:40 (v/v)
[13] = mobile phase MeOH/water 70:30 (v/v)
[14] = mobile phase MeOH/water 80:20 (v/v)
[15] = mobile phase MeOH/water 85:15 (v/v)
[16] = 336 h, 14 d cultivation, read-out: MIC, MT My 331/88
[17] = 504 h, 21 d cultivation, read-out: MIC, MT My 331/88
[18] = silica gel plates impregnated with 3% silicone oil in heptane
[19] = silica gel plates impregnated with 5% silicone oil in heptane
[20] = ATCC25291, 336 h, 14-d/21-d, read-out: MIC against M. avium CNCTC My 330/80
[21] = ATCC12478, 168 h, 7 d cultivation
[22] = 336 h, 14-d/21-d cultivation, read-out: MIC against M. tuberculosis CNCTC My 331/88

| SMILES | MIC (M. kansasii CIT11/06) | MIC [1] | MIC [2, 8] | MIC [2, 9] | MIC [3, 10] | MIC [3, 11] | capacity factor k (RP-HPLC) ([4]; MeOH/water 60:40 (v/v)) | capacity factor k (RP-HPLC) ([4]; MeOH/water 70:30 (v/v)) | capacity factor k (RP-HPLC) ([4]; MeOH/water 80:20 (v/v)) | capacity factor k (RP-HPLC) ([4]; MeOH/water 85:15 (v/v)) | log kw (RP-HPLC) [4] | log k (RP-HPLC) [4, 12] | log k (RP-HPLC) [4, 13] | log k (RP-HPLC) [4, 14] | log k (RP-HPLC) [4, 15] | S, slope (RP-HPLC) [4] | MIC [5, 16] | MIC [5, 17] | RM (RP-TLC) [6, 19] | MIC ([7]; 168 h, 7 d cultivation) | other results |
| --- | --- | --- | --- | --- | --- | --- | --- | --- | --- | --- | --- | --- | --- | --- | --- | --- | --- | --- | --- | --- | --- |
| CCCOC(=O)Nc1cccc(C(O)CN2CCN(c3ccccc3F)CC2)c1.Cl (stereo not shown) [8c, 1-(2-Hydroxy-2-{3-[(propoxycarbonyl)amino]phenyl}ethyl)-4-(2-fluorophenyl)piperazin-1-ium chloride] | > 571 µM | > 571 µM | 125 µM | 250 µM | 125 µM | 125 µM | 5.898 | 3.561 | 1.466 | 1.023 | 2.679 | 0.771 | 0.552 | 0.166 | 0.010 | 3.1244 | 62.5 µM | 62.5 µM | 0.44 | 32 µM | MIC ([3]; ATCC12478, 168 h): 62.5 µM; RM (RP-TLC) [6, 18]: 0.42; MIC ([7]; 336 h, 14 d cultivation): 125 µM; MIC ([7]; 504 h, 21 d cultivation): 125 µM |
| CCCCOC(=O)Nc1cccc(C(O)CN2CCN(c3ccccc3F)CC2)c1.Cl (stereo not shown) [8d, 1-(2-{3-[(Butoxycarbonyl)amino]phenyl}-2-hydroxyethyl)-4-(2-fluorophenyl)piperazin-1-ium chloride] | > 553 µM | > 553 µM | 62.5 µM | 62.5 µM | 62.5 µM | 62.5 µM | 6.738 | 5.039 | 1.769 | 1.185 | 2.796 | 0.829 | 0.702 | 0.245 | 0.074 | 3.1641 | 32 µM | 32 µM | 0.64 | 16 µM | MIC [2, 20]: 62.5 µM; MIC [3, 21]: 32 µM; MIC [5, 22]: 32 µM; RM, lipophilicity index (RP-TLC) [6]: 0.01; MIC ([7]; 336 h, 14 d cultivation): 32 µM; MIC ([7]; 504 h, 21 d cultivation): 62.5 µM |
| CCCCOC(=O)Nc1ccc(C(O)CN2CCN(c3ccccc3F)CC2)cc1.Cl (stereo not shown) [8h, 1-(2-{4-[(Butoxycarbonyl)amino]phenyl}-2-hydroxyethyl)-4-(2-fluorophenyl)piperazin-1-ium chloride] | > 553 µM | > 553 µM | > 250 µM | 250 µM | > 125 µM | > 125 µM | 7.598 | 4.627 | 1.736 | 1.173 | 2.930 | 0.881 | 0.665 | 0.240 | 0.069 | 3.3441 | 8 µM | 8 µM | 0.83 | 125 µM | MIC [3, 21]: 62.5 µM; MIC [5, 22]: 8 µM; RM, lipophilicity index (RP-TLC) [6]: 0.63; RM (RP-TLC) [6, 18]: 0.83; MIC ([7]; 336 h, 14 d cultivation): > 250 µM; MIC ([7]; 504 h, 21 d cultivation): > 250 µM |
| COC(=O)Nc1cccc(C(O)CN2CCN(c3ccccc3F)CC2)c1.Cl (stereo not shown) [8a, 1-(2-Hydroxy-2-{3-[(methoxycarbonyl)amino]phenyl}ethyl)-4-(2-fluorophenyl)piperazin-1-ium chloride] | > 610 µM | > 610 µM | 500 µM | 500 µM | 500 µM | 1000 µM | 4.091 | 1.770 | 0.925 | 0.699 | 2.430 | 0.612 | 0.248 | −0.034 | −0.156 | 3.0678 | 250 µM | 250 µM | -0.05 | 125 µM | MIC [2, 20]: 500 µM; MIC [3, 21]: 125 µM; MIC [5, 22]: 250 µM; RM (RP-TLC) [6, 18]: -0.16; MIC ([7]; 336 h, 14 d cultivation): 500 µM; MIC ([7]; 504 h, 21 d cultivation): 500 µM |
| CCCOC(=O)Nc1ccc(C(O)CN2CCN(c3ccccc3F)CC2)cc1.Cl (stereo not shown) [8g, 1-(2-Hydroxy-2-{4-[(propoxycarbonyl)amino]phenyl}ethyl)-4-(2-fluorophenyl)piperazin-1-ium chloride] | > 571 µM | > 571 µM | > 250 µM | > 250 µM | > 250 µM | > 250 µM | 5.394 | 3.108 | 1.342 | 0.956 | 2.600 | 0.732 | 0.492 | 0.128 | −0.020 | 3.0739 | 16 µM | 16 µM | 0.55 | 125 µM | MIC [3, 21]: 125 µM; RM, lipophilicity index (RP-TLC) [6]: 0.39; RM (RP-TLC) [6, 18]: 0.58; MIC ([7]; 336 h, 14 d cultivation): > 250 µM; MIC ([7]; 504 h, 21 d cultivation): > 250 µM |
